Patent publication US20250092065A1, “2-(INDAZOL-5-YL)-6-(PIPERIDIN-4-YL)-1,7-NAPHTHYRIDINE DERIVATIVES AND RELATED COMPOUNDS AS MODULATORS FOR SPLICING NUCLEIC ACIDS AND FOR THE TREATMENT OF PROLIFERATIVE DISEASES” (REMIX THERAPEUTICS INC., priority 2022, published 2025)
Where two headings read alike, the source gives them in different places.

What was measured:
[1] = tested on: MYB; assay: HiBiT protein abundance assay, MYB (K562 HiBiT knock-in); type: cell-based, human; conditions: HiBiT knock-in K562 cells, 24 hours, top dose 10 μM
How it was run: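 Luminescence readout: Nano-Glo HiBiT lytic detection after 24 h compound exposure of K562 HiBiT knock-in cells, 10000 cells/well. Dosing 10-pt, 3-fold, top 10 μM final. % response vs untreated parental K562 and DMSO controls; 4PL fit, IC50 = concentration giving 50% protein abundance.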

[2] = tested on: MYB mRNA; assay: RT-qPCR splicing assay, MYB mRNA canonical (CJ) and alternative (AJ) junction; type: cell-based, human; conditions: for AC50: MYB alternative junction mRNA, read-out: MYB AJ (increase in AJ mRNA, AC50)
How it was run: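 A673 or K562 cells treated 24 h at 37 °C with an 11-point 3-fold dilution series (top 10 uM, DMSO ≤0.25%). Lysates went directly to one-step RT-qPCR quantifying canonical (CJ) and alternative-exon (AJ) junctions, normalized to GAPDH, GUSB or PPIA. Values from ΔΔCt versus DMSO, RQ = 2^(−ΔΔCt), expressed as percentage response.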

[3] = tested on: Target C; assay: HiBiT protein abundance assay, Target C (K562 HiBiT knock-in); type: cell-based, human; conditions: HiBiT knock-in K562 cells, 24 hours, top dose 10 μM
How it was run: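 K562 HiBiT knock-in cells (10000/well) were treated 24 h at 37° C with a 10-point 3-fold dilution series (top 10 μM final, ≤0.25% DMSO). HiBiT luminescence was read after lytic LgBiT detection. Percent response used unmodified K562 and DMSO-treated knock-in controls, and IC50 came from a four-parameter fit at 50% of untreated.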

[4] = tested on: K562 cells; assay: Cell Titer Glo 2.0 cell viability (toxicity) assay, K562; conditions: 500 cells/well, 72 hours
[5] = Homo sapiens, MYB canonical junction mRNA, RT-qPCR, read-out: MYB CJ (decrease in CJ mRNA levels, IC50)
[6] = Homo sapiens, canonical junction qPCR panel, Table 4, read-out: MYB IC50 (decrease in CJ mRNA levels)

| SMILES | IC50 [1] [nM] | AC50 ([2]; Homo sapiens, RT-qPCR) [nM] | IC50 [2, 5] [nM] | IC50 [2, 6] [nM] | IC50 [3] [nM] | Effect of Exemplary Compounds on Cell Viability, K562 [4] | AC50 ([2]; RT-qPCR) [nM] | IC50 ([2]; MYB canonical junction mRNA, RT-qPCR, read-out: MYB CJ (decrease in CJ mRNA levels, IC50)) [nM] | IC50 ([2]; canonical junction qPCR panel, Table 4, read-out: MYB IC50 (decrease in CJ mRNA levels)) [nM] |
| --- | --- | --- | --- | --- | --- | --- | --- | --- | --- |
| Cn1cc2cc(-c3ccc4nc(N5CCC(NC6CC6)C5)ccc4n3)c(O)c(F)c2n1 (racemic) [Compound 287, 5-{6-[3-(cyclopropylamino)pyrrolidin-1-yl]-1,5-naphthyridin-2-yl}-7-fluoro-2-methylindazol-6-ol; trifluoroacetic acid] | < 100 | < 100 | < 100 | < 100 | < 100 | A (A represents <100 nM) |  |  |  |
| CC(C)N[C@@H]1CCN(c2ccc3nc(-c4cc5cn(C)nc5c(F)c4O)ccc3n2)C1 (single isomer, unassigned) [Compound 285] | < 100 | < 100 | < 100 | < 100 | < 100 | A (A represents <100 nM) |  |  |  |
| CC(C)N[C@H]1CCN(c2ccc3nc(-c4cc5cn(C)nc5c(F)c4O)ccc3n2)C1 (single isomer, unassigned) [Compound 286] | < 100 | < 100 | < 100 | < 100 | < 100 | A (A represents <100 nM) |  |  |  |
| Cc1c(O)c(-c2ccc3nc(N4CC[C@@H](NC5CCC5)C4)ccc3n2)cc2cn(C)nc12 (single isomer, unassigned) [Compound 289] | < 100 | < 100 | < 100 | < 100 | < 100 | A (A represents <100 nM) |  |  |  |
| Cc1c(O)c(-c2ccc3nc(N4CC[C@H](NC5CCC5)C4)ccc3n2)cc2cn(C)nc12 (single isomer, unassigned) [Compound 290] | < 100 | < 100 | < 100 | < 100 | < 100 | A (A represents <100 nM) |  |  |  |
| Cc1nc2cc(O)c(-c3ccc4nc(N5CCC(NCC6CC6)C5)ccc4n3)cc2o1 (single isomer, unassigned) [Compound 291, 6-(6-{3-[(cyclopropylmethyl)amino]pyrrolidin-1-yl}-1,5-naphthyridin-2-yl)-2-methyl-1,3-benzoxazol-5-ol] | 100 to 1000 | 100 to 1000 | 100 to 1000 | 100 to 1000 | 100 to 1000 | B (B represents 100-1000 nM) |  |  |  |
| Cc1nc2cc(O)c(-c3ccc4nc(N5CCC(NCC6CC6)C5)ccc4n3)cc2o1 (single isomer, unassigned) [Compound 292, 6-(6-{3-[(cyclopropylmethyl)amino]pyrrolidin-1-yl}-1,5-naphthyridin-2-yl)-2-methyl-1,3-benzoxazol-5-ol] | 100 to 1000 |  |  |  | < 100 | B (B represents 100-1000 nM) | 100 to 1000 | < 100 | < 100 |
| Cc1nc2c(C)c(O)c(-c3ccc4nc(N5CC[C@@H](NCC6CC6)C5)ccc4n3)cc2o1 (single isomer, unassigned) [Compound 295] | < 100 | < 100 | < 100 | < 100 | < 100 | B (B represents 100-1000 nM) |  |  |  |
| Cc1nc2c(C)c(O)c(-c3ccc4nc(N5CC[C@H](NCC6CC6)C5)ccc4n3)cc2o1 (single isomer, unassigned) [Compound 296] | < 100 | < 100 | 100 to 1000 | 100 to 1000 | < 100 | B (B represents 100-1000 nM) |  |  |  |
| Cn1cc2cc(-c3ccc4nc(N5CC[C@@H](N[C@H]6C[C@@H](F)C6)C5)ccc4n3)c(O)cc2n1 (single isomer, unassigned) [Compound 300] | < 100 | < 100 | < 100 | < 100 | < 100 | B (B represents 100-1000 nM) |  |  |  |
| Cn1cc2cc(-c3ccc4nc(N5CC[C@@H](NCC6CC6)C5)ccc4n3)c(O)c(F)c2n1 (single isomer, unassigned) [Compound 303] | < 100 | < 100 | < 100 | < 100 | < 100 | A (A represents <100 nM) |  |  |  |
| Cn1cc2cc(-c3ccc4nc(N5CC[C@H](NCC6CC6)C5)ccc4n3)c(O)c(F)c2n1 (single isomer, unassigned) [Compound 304] | < 100 | < 100 | < 100 | < 100 | < 100 | A (A represents <100 nM) |  |  |  |
| Cn1cc2cc(-c3ccc4nc(N5CC[C@@H](NC6CC6)C5)ccc4n3)c(O)c(F)c2n1 (single isomer, unassigned) [Compound 305] | < 100 | < 100 | < 100 | < 100 | < 100 | A (A represents <100 nM) |  |  |  |
| Cn1cc2cc(-c3ccc4nc(N5CC[C@H](NC6CC6)C5)ccc4n3)c(O)c(F)c2n1 (single isomer, unassigned) [Compound 306] | < 100 | < 100 | < 100 | < 100 | < 100 | A (A represents <100 nM) |  |  |  |
| Cc1nc2c(F)c(O)c(-c3ccc4nc(N5CC[C@@H](NC6CCC6)C5)ccc4n3)cc2o1 (single isomer, unassigned) [Compound 307] | < 100 | < 100 | < 100 | < 100 | < 100 | A (A represents <100 nM) |  |  |  |
| Cc1nc2c(F)c(O)c(-c3ccc4nc(N5CC[C@H](NC6CCC6)C5)ccc4n3)cc2o1 (single isomer, unassigned) [Compound 308] | < 100 | < 100 | < 100 | < 100 | < 100 | A (A represents <100 nM) |  |  |  |
| Cc1nc2c(C)c(O)c(-c3ccc4nc(N5CC[C@@H](NC6(C)CC6)C5)ccc4n3)cc2o1 (single isomer, unassigned) [Compound 310] | < 100 | < 100 | < 100 | < 100 | < 100 | A (A represents <100 nM) |  |  |  |
| Cc1nc2c(C)c(O)c(-c3ccc4nc(N5CC[C@H](NC6(C)CC6)C5)ccc4n3)cc2o1 (single isomer, unassigned) [Compound 311] | 100 to 1000 | 100 to 1000 | 100 to 1000 | 100 to 1000 | < 100 | C (C represents 1000-9999 nM) |  |  |  |
| Cc1cn2nc(-c3ccc4nc(N5CCC(NC6CC6)C5)ccc4n3)c(O)c2c(C)n1 (centres unmarked) [Compound 252] | 100 to 1000 | 100 to 1000 | 100 to 1000 | 100 to 1000 | 100 to 1000 |  |  |  |  |
